Our source for the MIC, IC50 and T/C values is ChEMBL document CHEMBL1146645, “Synthesis and structure-activity relationships of 3-substituted 1,4-dihydro-4-oxo-1-(2-thiazolyl)-1,8-naphthyridines as novel antitumor agents” (Bioorg Med Chem Lett, 2004).

≈ marks a conversion by molar mass, not a printed value. Some results are limits rather than exact numbers.

One experiment deals with Escherichia coli. Briefly: In vitro antibacterial activity of compound towards Escherichia coli NIHJ JC-2. The experiment is classed as functional.
The next experiment concerns P388. Briefly: In vitro cytotoxicity was measured towards murine lymphocytic leukemia P388 cells. The format is functional, cell-based. To be noted: Mus musculus.
The next experiment concerns Staphylococcus aureus. The experiment can be described thus: In vitro antibacterial activity towards Staphylococcus aureus 209 JC-1. The experiment is classed as functional.
For experiment [1], the system named is Mus musculus. Briefly: In vivo antitumor activity against murine P388 leukemia measured as median survival of treated mice to that of control (T/C) at a dose of […]. The experiment is classed as functional.
Experiment [2] deals with Mus musculus. The experiment can be described thus: In vivo antitumor activity against murine P388 leukemia measured as median survival of treated mice to that of control (T/C) at a dose of 50 mg/kg. The experiment is classed as functional.
For the next experiment, the system named is A-427. Briefly: cells. The experiment is classed as functional, cell-based. Conditions: Homo sapiens.
For a further experiment, the system named is AZ-521 cell line. Briefly: cells. The experiment is classed as functional, cell-based. Conditions: Homo sapiens.
For a further experiment, the system named is C-33-A. Briefly: Cytotoxic activity against human C-33A cervix tumor cell line. The experiment is classed as functional, cell-based.
The next experiment relates to HMV-2 cell line. The experiment can be described thus: Cytotoxic activity against human HMV-2 melanoma tumor cell line. The format is functional, cell-based.
The test system of the next experiment is KB. The experiment can be described thus: Cytotoxic activity against human KB nasopha tumor cell line. The format is functional, cell-based.
The subject of another experiment is MKN-45. The experiment can be described thus: Cytotoxic activity against human MKN45 stomach tumor cell line. The format is functional, cell-based.
A further experiment concerns WiDr. The experiment can be described thus: Cytotoxic activity against human WiDr colon tumor cell line. The experiment is classed as functional, cell-based.

Description for A-427: Cytotoxic activity against human A-427 lung tumor cell line
Description for AZ-521 cell line: Cytotoxic activity against human AZ-521 stomach tumor cell line

For orientation: MIC means the smallest concentration in the dilution series that meets the test's criterion for growth inhibition. In general, IC50 refers to the midpoint of a concentration-inhibition curve. A high value points to a need for much substance. Take `NC1CCN(c2nc3c(cc2F)c(=O)c(O)cn3-c2nccs2)C1` (stereo not given): the minimal inhibitory concentration (MIC) against Escherichia coli was 0.78 µg/mL (≈ 2.25 µM); against Staphylococcus aureus it was 50 µg/mL (≈ 144 µM). The compound also gave an IC50 in the experiment on P388 of 0.168 µg/mL (≈ 0.484 µM).
As to `CCOC(=O)c1cn(-c2nccs2)c2nc(N3CCC(N)C3)c(F)cc2c1=O` (stereo not given), the MIC in the experiment with Escherichia coli came out at 12.5 µg/mL (≈ 31 µM); in the experiment on Staphylococcus aureus, 50 µg/mL (≈ 124 µM). It took 0.136 µg/mL (≈ 0.337 µM) to reach half-maximal inhibition in the experiment with P388 (IC50).
The corresponding values for `NC(=O)c1cn(-c2nccs2)c2nc(N3CCC(N)C3)c(F)cc2c1=O` (stereo not given) are above 100 µg/mL, above 100 µg/mL and 0.269 µg/mL (≈ 0.718 µM).
For orientation: T/C means the result in the treated group divided by that in the control group, in per cent. In the case of `NC1CCN(c2nc3c(cc2F)c(=O)c(C(=O)O)cn3-c2nccs2)C1` (stereo not given), the MIC with Escherichia coli came to 0.025 µg/mL (≈ 0.0666 µM); against Staphylococcus aureus it was 0.39 µg/mL (≈ 1.04 µM). Also, the T/C was 150% in the experiment on Mus musculus [1], 213% with Mus musculus [1] (dose […]) and above 375% in the experiment with Mus musculus [2]. For the same compound, the IC50 in the experiment with P388 amounted to 0.0211 µg/mL (≈ 0.0562 µM).
For `CN[C@H]1CN(c2nc3c(cc2F)c(=O)c(C=O)cn3-c2nccs2)C[C@@H]1OC`, the IC50 with A-427 was 0.0749 µg/mL (≈ 0.186 µM); in the experiment on AZ-521 cell line it was 0.0307 µg/mL (≈ 0.0761 µM); with C-33-A, 0.161 µg/mL (≈ 0.399 µM); in the experiment on HMV-2 cell line, 0.214 µg/mL (≈ 0.53 µM); in the experiment with KB it was 0.179 µg/mL (≈ 0.444 µM); in the experiment with MKN-45 it was 0.144 µg/mL (≈ 0.357 µM). Moreover, the results for the IC50 in the experiment with P388 and in the experiment on WiDr were 0.0309 µg/mL (≈ 0.0766 µM) and 0.264 µg/mL (≈ 0.654 µM), respectively. Also, the MIC in the experiment with Escherichia coli came out at 100 µg/mL (≈ 248 µM); with Staphylococcus aureus it was 12.5 µg/mL (≈ 31 µM). In addition, the T/C is recorded as 188% with Mus musculus [1], 250% with Mus musculus [1] (dose […]) and 325% in the experiment on Mus musculus [2].
In the case of `NC1CCN(c2nc3c(cc2F)c(=O)c(Cc2ccccc2)cn3-c2nccs2)C1` (stereo not given), the MIC was found to be 100 µg/mL (≈ 237 µM) in the experiment on Escherichia coli and 50 µg/mL (≈ 119 µM) in the experiment with Staphylococcus aureus. Moreover, half-maximal inhibition in the experiment on P388 (IC50) was put at 0.0178 µg/mL (≈ 0.0422 µM).
For the compound `COc1cc([C@@H]2c3cc4c(cc3[C@@H](O[C@@H]3O[C@@H]5CO[C@@H](C)O[C@H]5[C@H](O)[C@H]3O)[C@H]3COC(=O)[C@H]23)OCO4)cc(OC)c1O` [ETOPOSIDE], the IC50 in the experiment with AZ-521 cell line worked out at 0.08 µg/mL (≈ 0.136 µM); with C-33-A it was 0.084 µg/mL (≈ 0.143 µM); in the experiment with HMV-2 cell line it was 0.298 µg/mL (≈ 0.506 µM); in the experiment with KB, 0.201 µg/mL (≈ 0.342 µM); with MKN-45, 0.49 µg/mL (≈ 0.833 µM); with WiDr, 1.63 µg/mL (≈ 2.77 µM). The T/C with Mus musculus [1] is 175%; in the experiment on Mus musculus [1] (dose […] mg/kg, […]) it was 250%; in the experiment on Mus musculus [2], above 375%.
